Assay results taken from PubChem BioAssay (NCI).
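Abbreviation: GI50, concentration required for 50% inhibition of growth. TGI is the concentration that stops growth completely.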

What was measured:
Experiment in all cases: NCI anticancer screen, dose series, 384-well format
A498 renal = test system: A498 renal
A549 NSCLC = test system: A549 NSCLC
ACHN renal = test system: ACHN renal
CAKI-1 renal = test system: CAKI-1 renal
CCRF-CEM leukemia = test system: CCRF-CEM leukemia
COLO 205 colon = test system: COLO 205 colon
DU-145 prostate = test system: DU-145 prostate
HCT-116 colon = test system: HCT-116 colon
HCT-15 colon = test system: HCT-15 colon
HL-60(TB) leukemia = test system: HL-60(TB) leukemia
HOP-62 NSCLC = test system: HOP-62 NSCLC
HOP-92 NSCLC = test system: HOP-92 NSCLC
HS 578T breast = test system: HS 578T breast
HT29 colon = test system: HT29 colon
K-562 leukemia = test system: K-562 leukemia
KM12 colon = test system: KM12 colon
LOX IMVI melanoma = test system: LOX IMVI melanoma
M14 melanoma = test system: M14 melanoma
MALME-3M melanoma = test system: MALME-3M melanoma
MCF7 breast = test system: MCF7 breast
MDA-MB-231 breast = test system: MDA-MB-231 breast
MDA-MB-435 melanoma = test system: MDA-MB-435 melanoma
MDA-MB-468 breast = test system: MDA-MB-468 breast
NCI-H23 lung = test system: NCI-H23 lung
NCI-H322M lung = test system: NCI-H322M lung
NCI-H460 NSCLC = test system: NCI-H460 NSCLC
NCI/ADR-RES ovarian = test system: NCI/ADR-RES ovarian
OVCAR-3 ovarian = test system: OVCAR-3 ovarian
OVCAR-4 ovarian = test system: OVCAR-4 ovarian
OVCAR-5 ovarian = test system: OVCAR-5 ovarian
PC-3 prostate = test system: PC-3 prostate
RPMI-8226 leukemia = test system: RPMI-8226 leukemia
RXF 393 renal = test system: RXF 393 renal
SF-268 CNS = test system: SF-268 CNS
SF-295 CNS = test system: SF-295 CNS
SF-539 CNS = test system: SF-539 CNS
SK-MEL-2 melanoma = test system: SK-MEL-2 melanoma
SK-MEL-28 melanoma = test system: SK-MEL-28 melanoma
SK-MEL-5 melanoma = test system: SK-MEL-5 melanoma
SN12C renal = test system: SN12C renal
SNB-75 CNS = test system: SNB-75 CNS
SW-620 colon = test system: SW-620 colon
TK-10 renal = test system: TK-10 renal
U251 glioblastoma = test system: U251 glioblastoma
UACC-257 melanoma = test system: UACC-257 melanoma
UACC-62 melanoma = test system: UACC-62 melanoma
UO-31 renal = test system: UO-31 renal

COCCOc1cnc2ccn([C@H](C)c3nnc4c(F)cc(-c5cnn(C)c5)cn34)c(=O)c2c1
GI50 (A498 renal): > 100 µM | TGI (A498 renal): > 100 µM | GI50 (A549 NSCLC): > 100 µM | TGI (A549 NSCLC): > 100 µM | GI50 (ACHN renal): > 100 µM | TGI (ACHN renal): > 100 µM | GI50 (CAKI-1 renal): > 56.9 µM | TGI (CAKI-1 renal): > 100 µM | GI50 (CCRF-CEM leukemia): > 100 µM | TGI (CCRF-CEM leukemia): > 100 µM | GI50 (COLO 205 colon): > 100 µM | TGI (COLO 205 colon): > 100 µM | GI50 (DU-145 prostate): > 100 µM | TGI (DU-145 prostate): > 100 µM | GI50 (HCT-116 colon): > 100 µM | TGI (HCT-116 colon): > 100 µM | GI50 (HCT-15 colon): > 100 µM | TGI (HCT-15 colon): > 100 µM | GI50 (HL-60(TB) leukemia): > 100 µM | TGI (HL-60(TB) leukemia): > 100 µM | GI50 (HOP-62 NSCLC): > 100 µM | TGI (HOP-62 NSCLC): > 100 µM | GI50 (HOP-92 NSCLC): > 100 µM | TGI (HOP-92 NSCLC): > 100 µM | GI50 (HS 578T breast): > 100 µM | TGI (HS 578T breast): > 100 µM | GI50 (HT29 colon): > 100 µM | TGI (HT29 colon): > 100 µM | GI50 (K-562 leukemia): > 100 µM | TGI (K-562 leukemia): > 100 µM | GI50 (KM12 colon): 24.5 µM | TGI (KM12 colon): > 100 µM | GI50 (LOX IMVI melanoma): > 100 µM | TGI (LOX IMVI melanoma): > 100 µM | GI50 (M14 melanoma): > 100 µM | TGI (M14 melanoma): > 100 µM | GI50 (MALME-3M melanoma): > 100 µM | TGI (MALME-3M melanoma): > 100 µM | GI50 (MCF7 breast): > 100 µM | TGI (MCF7 breast): > 100 µM | GI50 (MDA-MB-231 breast): > 100 µM | TGI (MDA-MB-231 breast): > 100 µM | GI50 (MDA-MB-435 melanoma): > 100 µM | TGI (MDA-MB-435 melanoma): > 100 µM | GI50 (MDA-MB-468 breast): > 100 µM | TGI (MDA-MB-468 breast): > 100 µM | GI50 (NCI-H23 lung): > 100 µM | TGI (NCI-H23 lung): > 100 µM | GI50 (NCI-H322M lung): > 100 µM | TGI (NCI-H322M lung): > 100 µM | GI50 (NCI-H460 NSCLC): > 100 µM | TGI (NCI-H460 NSCLC): > 100 µM | GI50 (NCI/ADR-RES ovarian): > 100 µM | TGI (NCI/ADR-RES ovarian): > 100 µM | GI50 (OVCAR-3 ovarian): > 100 µM | TGI (OVCAR-3 ovarian): > 100 µM | GI50 (OVCAR-4 ovarian): 98 µM | TGI (OVCAR-4 ovarian): > 100 µM | GI50 (OVCAR-5 ovarian): > 100 µM | TGI (OVCAR-5 ovarian): > 100 µM | GI50 (PC-3 prostate): > 100 µM | TGI (PC-3 prostate): > 100 µM | GI50 (RPMI-8226 leukemia): > 100 µM | TGI (RPMI-8226 leukemia): > 100 µM | GI50 (RXF 393 renal): > 100 µM | TGI (RXF 393 renal): > 100 µM | GI50 (SF-268 CNS): > 100 µM | TGI (SF-268 CNS): > 100 µM | GI50 (SF-295 CNS): 85.2 µM | TGI (SF-295 CNS): > 100 µM | GI50 (SF-539 CNS): > 100 µM | TGI (SF-539 CNS): > 100 µM | GI50 (SK-MEL-2 melanoma): > 100 µM | TGI (SK-MEL-2 melanoma): > 100 µM | GI50 (SK-MEL-28 melanoma): > 100 µM | TGI (SK-MEL-28 melanoma): > 100 µM | GI50 (SK-MEL-5 melanoma): > 100 µM | TGI (SK-MEL-5 melanoma): > 100 µM | GI50 (SN12C renal): > 100 µM | TGI (SN12C renal): > 100 µM | GI50 (SNB-75 CNS): > 100 µM | TGI (SNB-75 CNS): > 100 µM | GI50 (SW-620 colon): > 100 µM | TGI (SW-620 colon): > 100 µM | GI50 (TK-10 renal): > 100 µM | TGI (TK-10 renal): > 100 µM | GI50 (U251 glioblastoma): > 100 µM | TGI (U251 glioblastoma): > 100 µM | GI50 (UACC-257 melanoma): > 100 µM | TGI (UACC-257 melanoma): > 100 µM | GI50 (UACC-62 melanoma): 58.1 µM | TGI (UACC-62 melanoma): > 100 µM | GI50 (UO-31 renal): > 100 µM | TGI (UO-31 renal): > 100 µM
